Laboratory results as given in patent US6358988B1, “Process and composition for the antiparasitic treatment of the surroundings of animals” (priority 1996, dated 2002).

Tests used:
adult Tenebrio molitor = assay: whole plant or invertebrate; conditions: in Solanum tuberosum, 24 h
Description: Ten (10) gram pieces of potato were placed into individual jars. […] The acetone-surfactant solution comprised acetone. Triton® 152, and Triton® 172 mixed in volumetric ratio of about 785:1:3. […] Adult Tenebrio molitor and a strip of paper towel 1 cm by 3 cm were added to each jar. Mortality was rated at 1 day after treatment.
If the actually observed value is greater than the expected value […] then there is synergism.

fly larvae = conditions: 25 ppm of compound (A); surface of poultry dung and cow dung
Description: An application was carried out at the surface of poultry dung and of cow dung treated beforehand with fly larvae.

[1] = tested on: darkling beetles (Alphitobius diaperinus); assay: Poultry house litter treatment, darkling beetle population monitored with 9 traps; format: in vivo; conditions: water-dispersible granules containing 80% of compound (A), 150 g/ha; during the 10th week (end of a rearing cycle)
Description: The treatment took place on the clean litter before the poultry was installed therein. The clean litter was essentially composed of straw.
On the day after the treatment, a group of chicks aged 1 to 2 days was installed in the rearing house at the rate of approximately 7 animals per m^2.
The change in the population of darkling beetles (Alphitobius diaperinus) in the litter was regularly monitored using 9 homogeneously distributed traps. Measurements were carried out each week from the second week after the treatment until rearing was halted.
The total population of darkling beetles in the 9 traps of the treated poultry house varied between 11 and 96 until the 9th week after treatment whereas, in a similar but untreated poultry house, the population of darkling beetles (larvae and adults) oscillated between 1000 and 3000 at each counting point.

Compound	mortality at 6.25 ppm (adult Tenebrio molitor)	mortality at 25 ppm (adult Tenebrio molitor)	mortality at 100 ppm (adult Tenebrio molitor)	mortality at 400 ppm (adult Tenebrio molitor)	inhibition of larval development of the flies (effectiveness with respect to untreated controls) (fly larvae)	control of darkling beetles [1]
CNC(=O)Oc1cccc2ccccc12 [Carbaryl, 1-naphthyl methylcarbamate, reference compound]	0%	27%	80%	93%	–	–
N#Cc1nn(-c2c(Cl)cc(C(F)(F)F)cc2Cl)c(N)c1[S+]([O-])C(F)(F)F (stereo not drawn) [compound (A), 1-[2,6-Cl2-4-CF3phenyl]-3-CN-4-[SO—CF3]-5-NH2pyrazole]	–	–	–	–	100%	86%
